Reference: ChEMBL document CHEMBL5338754, “Identification of Binding Sites in the Nucleotide-Binding Domain of P-Glycoprotein for a Potent and Nontoxic Modulator, the Amine-Containing Monomeric Flavonoid FM04” (J Med Chem, 2023)

Experiments:
[1] = molecular target: T1, ATP-dependent translocase ABCB1 (Homo sapiens, UniProt P08183); experiment: Negative allosteric modulator activity at P-gp in human LCC6MDR cells overexpressing P-gp assessed as reversal of P-gp mediated paclitaxel resistance activity by measuring relative fold at 1 uM incubated for 5 days by MTS assay; assay type: cell-based; settings: 120 h, time 5 day
[2] = molecular target: T1, ATP-dependent translocase ABCB1; experiment: Negative allosteric modulator activity at human wildtype P-gp expressed in HEK293FT cells assessed as reversal of P-gp mediated PTX resistance by measuring sensitivity fold change incubated for 5 days by MTS assay; assay type: cell-based; settings: 120 h, time 5 day
[3] = molecular target: T2, ATP-dependent translocase ABCB1 (Homo sapiens, UniProt P08183, L1113A); experiment: Negative allosteric modulator activity at human P-gp L1113A mutant expressed in HEK293FT cells assessed as reversal of P-gp mediated PTX resistance by measuring sensitivity fold change incubated for 5 days by MTS assay; assay type: cell-based; settings: 120 h, time 5 day
[4] = molecular target: ATP-dependent translocase ABCB1 (Homo sapiens, UniProt P08183, Q1193N); experiment: Negative allosteric modulator activity at human P-gp Q1193N mutant expressed in HEK293FT cells assessed as reversal of P-gp mediated PTX resistance by measuring sensitivity fold change incubated for 5 days by MTS assay; assay type: cell-based; settings: 120 h, time 5 day
[5] = molecular target: ATP-dependent translocase ABCB1 (Homo sapiens, UniProt P08183, T1226F); experiment: Negative allosteric modulator activity at human P-gp T1226F mutant expressed in HEK293FT cells assessed as reversal of P-gp mediated PTX resistance by measuring sensitivity fold change incubated for 5 days by MTS assay; assay type: cell-based; settings: 120 h, time 5 day
[6] = molecular target: ATP-dependent translocase ABCB1 (Homo sapiens, UniProt P08183, Q1193A); experiment: Negative allosteric modulator activity at human P-gp Q1193A mutant expressed in HEK293FT cells assessed as increase in intracellular doxorubicin accumulation using doxorubicin as substrate at 1 uM incubated for 150 mins by microplate reader assay (reference value: 53.6 +/- 3 %); assay type: cell-based; settings: 2.5 h
[7] = molecular target: T3, ATP-dependent translocase ABCB1 (Homo sapiens, UniProt P08183, Q1193F); experiment: Negative allosteric modulator activity at human P-gp Q1193F mutant expressed in HEK293FT cells assessed as increase in intracellular doxorubicin accumulation using doxorubicin as substrate at 1 uM incubated for 150 mins by microplate reader assay (reference value: 64.7 +/- 2.6 %); assay type: cell-based; settings: 2.5 h
[8] = molecular target: T4, ATP-dependent translocase ABCB1 (Homo sapiens, UniProt P08183, G1114I); experiment: Negative allosteric modulator activity at human P-gp G1114I mutant expressed in HEK293FT cells assessed as increase in intracellular doxorubicin accumulation using doxorubicin as substrate at 1 uM incubated for 150 mins by microplate reader assay (reference value: 94.7 +/- 2.7 %); assay type: cell-based; settings: 2.5 h
[9] = molecular target: ATP-dependent translocase ABCB1 (Homo sapiens, UniProt P08183, I1115E); experiment: Negative allosteric modulator activity at human P-gp I1115E mutant expressed in HEK293FT cells assessed as increase in intracellular doxorubicin accumulation using doxorubicin as substrate at 1 uM incubated for 150 mins by microplate reader assay (reference value: 94.7 +/- 5.1 %); assay type: cell-based; settings: 2.5 h
[10] = molecular target: ATP-dependent translocase ABCB1 (Homo sapiens, UniProt P08183, I1115N); experiment: Negative allosteric modulator activity at human P-gp I1115N mutant expressed in HEK293FT cells assessed as increase in intracellular doxorubicin accumulation using doxorubicin as substrate at 1 uM incubated for 150 mins by microplate reader assay (reference value: 98.6 +/- 4.3 %); assay type: cell-based; settings: 2.5 h
[11] = molecular target: ATP-dependent translocase ABCB1 (Homo sapiens, UniProt P08183, T1226W); experiment: Negative allosteric modulator activity at human P-gp T1226W mutant expressed in HEK293FT cells assessed as increase in intracellular doxorubicin accumulation using doxorubicin as substrate at 1 uM incubated for 150 mins by microplate reader assay (reference value: 66.7 +/- 1.5 %); assay type: cell-based; settings: 2.5 h
[12] = molecular target: ATP-dependent translocase ABCB1 (Homo sapiens, UniProt P08183, H1195A); experiment: Negative allosteric modulator activity at human P-gp H1195A mutant expressed in HEK293FT cells assessed as fold change in intracellular doxorubicin accumulation using doxorubicin as substrate at 1 uM incubated for 150 mins by microplate reader assay relative to DMSO; assay type: cell-based; settings: 2.5 h
[13] = molecular target: T2, ATP-dependent translocase ABCB1; experiment: Negative allosteric modulator activity at human P-gp L1113A mutant expressed in HEK293FT cells assessed as fold change in intracellular doxorubicin accumulation using doxorubicin as substrate at 1 uM incubated for 150 mins by microplate reader assay relative to DMSO; assay type: cell-based; settings: 2.5 h
[14] = molecular target: ATP-dependent translocase ABCB1 (Homo sapiens, UniProt P08183, Q1193E); experiment: Negative allosteric modulator activity at human P-gp Q1193E mutant expressed in HEK293FT cells assessed as fold change in intracellular doxorubicin accumulation using doxorubicin as substrate at 1 uM incubated for 150 mins by microplate reader assay relative to DMSO; assay type: cell-based; settings: 2.5 h
[15] = molecular target: T5, ATP-dependent translocase ABCB1 (Homo sapiens, UniProt P08183, Q1193C); experiment: Negative allosteric modulator activity at human P-gp Q1193C mutant expressed in HEK293FT cells assessed as fold change in intracellular doxorubicin accumulation using doxorubicin as substrate at 1 uM incubated for 150 mins by microplate reader assay relative to DMSO; assay type: cell-based; settings: 2.5 h
[16] = molecular target: T4, ATP-dependent translocase ABCB1; experiment: Negative allosteric modulator activity at human P-gp G1114I mutant expressed in HEK293FT cells assessed as fold change in intracellular doxorubicin accumulation using doxorubicin as substrate at 1 uM incubated for 150 mins by microplate reader assay relative to DMSO; assay type: cell-based; settings: 2.5 h
[17] = molecular target: ATP-dependent translocase ABCB1 (Homo sapiens, UniProt P08183, I1115Y); experiment: Negative allosteric modulator activity at human P-gp I1115Y mutant expressed in HEK293FT cells assessed as fold change in intracellular doxorubicin accumulation using doxorubicin as substrate at 1 uM incubated for 150 mins by microplate reader assay relative to DMSO; assay type: cell-based; settings: 2.5 h
[18] = molecular target: ATP-dependent translocase ABCB1 (Homo sapiens, UniProt P08183, I1115F); experiment: Negative allosteric modulator activity at human P-gp I1115F mutant expressed in HEK293FT cells assessed as fold change in intracellular doxorubicin accumulation using doxorubicin as substrate at 1 uM incubated for 150 mins by microplate reader assay relative to DMSO; assay type: cell-based; settings: 2.5 h
[19] = molecular target: T5, ATP-dependent translocase ABCB1; experiment: Activation of P-gp ATPase activity in human P-gp Q1193C mutant expressed in HEK293FT cell microsomes at 20 uM incubated for 1 hr in presence of ATP by Glo-luminescence based microplate reader assay (reference value: 0.45 +/- 0.04 pmol/min/microg); design: species or system Microsome
[20] = molecular target: T3, ATP-dependent translocase ABCB1; experiment: Activation of P-gp ATPase activity in human P-gp Q1193F mutant expressed in HEK293FT cell microsomes assessed as fold change of ATPase activity at 20 uM incubated for 1 hr in presence of ATP by Glo-luminescence based microplate reader assay relative to DMSO; design: species or system Microsome
[21] = molecular target: P-gp (ABCB1) I1115F mutant (Homo sapiens, UniProt P08183, I1115F); experiment: Activation of P-gp ATPase activity in human P-gp I1115F mutant expressed in HEK293FT cell microsomes assessed as fold change of ATPase activity at 20 uM incubated for 1 hr in presence of ATP by Glo-luminescence based microplate reader assay relative to DMSO; design: species or system Microsome; settings: read-out: FC

T2 sequence (P08183 whole entry L1113A): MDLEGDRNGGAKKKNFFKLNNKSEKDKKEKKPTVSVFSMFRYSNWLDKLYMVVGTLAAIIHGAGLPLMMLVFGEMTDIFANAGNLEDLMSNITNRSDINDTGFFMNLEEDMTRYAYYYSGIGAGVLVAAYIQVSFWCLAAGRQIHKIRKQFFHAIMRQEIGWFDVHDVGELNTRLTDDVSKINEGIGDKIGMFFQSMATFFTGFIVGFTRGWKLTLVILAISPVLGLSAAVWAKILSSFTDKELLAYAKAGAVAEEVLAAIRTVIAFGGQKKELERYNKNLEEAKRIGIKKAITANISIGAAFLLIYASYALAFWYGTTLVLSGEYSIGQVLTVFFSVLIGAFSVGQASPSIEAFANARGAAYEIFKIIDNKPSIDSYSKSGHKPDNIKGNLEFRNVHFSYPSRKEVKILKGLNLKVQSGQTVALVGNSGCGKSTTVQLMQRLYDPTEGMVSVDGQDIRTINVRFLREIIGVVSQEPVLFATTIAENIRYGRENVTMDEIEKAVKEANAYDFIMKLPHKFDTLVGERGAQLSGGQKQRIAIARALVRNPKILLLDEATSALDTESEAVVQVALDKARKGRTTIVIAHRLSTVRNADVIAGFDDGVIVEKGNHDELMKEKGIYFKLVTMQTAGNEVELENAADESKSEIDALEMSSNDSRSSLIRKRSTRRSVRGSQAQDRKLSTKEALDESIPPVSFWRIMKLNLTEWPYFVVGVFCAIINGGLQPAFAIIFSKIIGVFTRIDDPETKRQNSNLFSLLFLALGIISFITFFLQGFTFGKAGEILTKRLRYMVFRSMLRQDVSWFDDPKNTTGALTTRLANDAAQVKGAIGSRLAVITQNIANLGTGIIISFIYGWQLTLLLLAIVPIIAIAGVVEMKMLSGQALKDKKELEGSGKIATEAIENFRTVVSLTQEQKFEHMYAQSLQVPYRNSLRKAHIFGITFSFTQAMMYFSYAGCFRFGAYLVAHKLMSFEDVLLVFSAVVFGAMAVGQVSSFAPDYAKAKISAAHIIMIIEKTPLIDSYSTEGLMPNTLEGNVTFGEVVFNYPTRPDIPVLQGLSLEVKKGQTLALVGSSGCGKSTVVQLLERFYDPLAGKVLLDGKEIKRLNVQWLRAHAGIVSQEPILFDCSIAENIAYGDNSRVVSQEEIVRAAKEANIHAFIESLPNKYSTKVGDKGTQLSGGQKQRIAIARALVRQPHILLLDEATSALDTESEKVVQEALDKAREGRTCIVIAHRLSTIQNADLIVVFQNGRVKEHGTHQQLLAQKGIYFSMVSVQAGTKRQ
T5 sequence (P08183 whole entry Q1193C): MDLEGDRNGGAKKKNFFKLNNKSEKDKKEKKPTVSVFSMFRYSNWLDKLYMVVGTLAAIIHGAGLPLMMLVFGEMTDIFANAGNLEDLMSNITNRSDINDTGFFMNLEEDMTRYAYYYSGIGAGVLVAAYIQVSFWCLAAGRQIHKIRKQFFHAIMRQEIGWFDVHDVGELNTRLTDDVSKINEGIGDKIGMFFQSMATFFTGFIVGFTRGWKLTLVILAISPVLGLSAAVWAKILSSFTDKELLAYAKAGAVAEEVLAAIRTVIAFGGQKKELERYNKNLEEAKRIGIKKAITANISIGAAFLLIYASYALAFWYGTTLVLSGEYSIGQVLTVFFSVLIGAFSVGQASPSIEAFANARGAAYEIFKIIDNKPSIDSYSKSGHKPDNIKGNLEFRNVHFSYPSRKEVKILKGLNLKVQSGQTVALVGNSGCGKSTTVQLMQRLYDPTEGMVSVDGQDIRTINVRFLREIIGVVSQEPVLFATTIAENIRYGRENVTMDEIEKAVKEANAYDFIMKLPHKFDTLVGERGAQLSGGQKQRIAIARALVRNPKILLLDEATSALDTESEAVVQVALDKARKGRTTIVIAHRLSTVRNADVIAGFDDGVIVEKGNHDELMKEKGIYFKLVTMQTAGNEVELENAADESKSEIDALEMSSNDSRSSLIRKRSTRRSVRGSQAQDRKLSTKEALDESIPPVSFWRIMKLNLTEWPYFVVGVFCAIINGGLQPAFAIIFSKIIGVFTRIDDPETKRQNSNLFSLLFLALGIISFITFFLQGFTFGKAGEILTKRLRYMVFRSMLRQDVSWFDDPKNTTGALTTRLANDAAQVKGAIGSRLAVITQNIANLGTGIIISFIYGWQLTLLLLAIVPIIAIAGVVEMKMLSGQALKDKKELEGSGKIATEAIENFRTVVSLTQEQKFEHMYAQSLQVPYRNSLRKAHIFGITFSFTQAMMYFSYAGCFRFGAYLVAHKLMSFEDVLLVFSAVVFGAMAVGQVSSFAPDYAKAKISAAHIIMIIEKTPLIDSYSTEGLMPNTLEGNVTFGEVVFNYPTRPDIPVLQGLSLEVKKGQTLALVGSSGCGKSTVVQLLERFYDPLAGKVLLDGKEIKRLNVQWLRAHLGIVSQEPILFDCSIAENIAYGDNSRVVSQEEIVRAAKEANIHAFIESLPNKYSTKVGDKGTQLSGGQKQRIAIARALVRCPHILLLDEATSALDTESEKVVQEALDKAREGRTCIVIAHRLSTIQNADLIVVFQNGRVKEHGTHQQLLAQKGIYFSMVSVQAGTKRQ
T4 sequence (P08183 whole entry G1114I): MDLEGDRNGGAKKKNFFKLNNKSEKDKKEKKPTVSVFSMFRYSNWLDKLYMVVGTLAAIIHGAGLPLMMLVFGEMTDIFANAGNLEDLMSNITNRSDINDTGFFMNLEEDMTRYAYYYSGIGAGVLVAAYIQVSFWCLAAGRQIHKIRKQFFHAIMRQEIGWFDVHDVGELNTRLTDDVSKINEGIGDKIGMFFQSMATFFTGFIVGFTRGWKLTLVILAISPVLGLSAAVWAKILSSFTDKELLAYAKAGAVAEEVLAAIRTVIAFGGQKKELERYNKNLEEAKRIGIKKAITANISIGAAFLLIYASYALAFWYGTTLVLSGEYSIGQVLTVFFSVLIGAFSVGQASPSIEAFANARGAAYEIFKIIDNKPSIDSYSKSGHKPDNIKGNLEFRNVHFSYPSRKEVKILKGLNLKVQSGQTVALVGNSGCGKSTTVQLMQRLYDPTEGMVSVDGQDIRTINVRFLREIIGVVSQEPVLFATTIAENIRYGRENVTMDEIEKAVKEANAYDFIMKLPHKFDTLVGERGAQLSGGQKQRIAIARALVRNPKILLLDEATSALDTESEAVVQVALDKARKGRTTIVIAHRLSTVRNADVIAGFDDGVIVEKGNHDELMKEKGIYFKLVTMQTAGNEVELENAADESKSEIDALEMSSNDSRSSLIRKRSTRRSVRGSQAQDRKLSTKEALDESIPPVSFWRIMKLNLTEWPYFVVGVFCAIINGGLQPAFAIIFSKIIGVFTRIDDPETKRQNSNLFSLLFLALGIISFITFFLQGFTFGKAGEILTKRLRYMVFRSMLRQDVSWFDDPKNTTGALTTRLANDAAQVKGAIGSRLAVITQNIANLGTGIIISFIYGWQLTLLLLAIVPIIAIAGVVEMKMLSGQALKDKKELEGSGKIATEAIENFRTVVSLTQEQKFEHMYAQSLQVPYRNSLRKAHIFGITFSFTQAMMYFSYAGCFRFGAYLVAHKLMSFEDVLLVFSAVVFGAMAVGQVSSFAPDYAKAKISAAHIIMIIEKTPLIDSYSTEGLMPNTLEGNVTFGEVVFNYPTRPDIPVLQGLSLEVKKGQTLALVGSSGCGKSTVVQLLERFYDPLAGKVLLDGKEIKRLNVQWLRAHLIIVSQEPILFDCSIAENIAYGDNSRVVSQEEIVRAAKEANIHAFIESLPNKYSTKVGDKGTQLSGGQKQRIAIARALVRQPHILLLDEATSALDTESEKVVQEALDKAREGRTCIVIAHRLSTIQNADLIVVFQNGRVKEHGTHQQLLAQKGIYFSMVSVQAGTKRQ
T1 sequence (P08183 whole entry): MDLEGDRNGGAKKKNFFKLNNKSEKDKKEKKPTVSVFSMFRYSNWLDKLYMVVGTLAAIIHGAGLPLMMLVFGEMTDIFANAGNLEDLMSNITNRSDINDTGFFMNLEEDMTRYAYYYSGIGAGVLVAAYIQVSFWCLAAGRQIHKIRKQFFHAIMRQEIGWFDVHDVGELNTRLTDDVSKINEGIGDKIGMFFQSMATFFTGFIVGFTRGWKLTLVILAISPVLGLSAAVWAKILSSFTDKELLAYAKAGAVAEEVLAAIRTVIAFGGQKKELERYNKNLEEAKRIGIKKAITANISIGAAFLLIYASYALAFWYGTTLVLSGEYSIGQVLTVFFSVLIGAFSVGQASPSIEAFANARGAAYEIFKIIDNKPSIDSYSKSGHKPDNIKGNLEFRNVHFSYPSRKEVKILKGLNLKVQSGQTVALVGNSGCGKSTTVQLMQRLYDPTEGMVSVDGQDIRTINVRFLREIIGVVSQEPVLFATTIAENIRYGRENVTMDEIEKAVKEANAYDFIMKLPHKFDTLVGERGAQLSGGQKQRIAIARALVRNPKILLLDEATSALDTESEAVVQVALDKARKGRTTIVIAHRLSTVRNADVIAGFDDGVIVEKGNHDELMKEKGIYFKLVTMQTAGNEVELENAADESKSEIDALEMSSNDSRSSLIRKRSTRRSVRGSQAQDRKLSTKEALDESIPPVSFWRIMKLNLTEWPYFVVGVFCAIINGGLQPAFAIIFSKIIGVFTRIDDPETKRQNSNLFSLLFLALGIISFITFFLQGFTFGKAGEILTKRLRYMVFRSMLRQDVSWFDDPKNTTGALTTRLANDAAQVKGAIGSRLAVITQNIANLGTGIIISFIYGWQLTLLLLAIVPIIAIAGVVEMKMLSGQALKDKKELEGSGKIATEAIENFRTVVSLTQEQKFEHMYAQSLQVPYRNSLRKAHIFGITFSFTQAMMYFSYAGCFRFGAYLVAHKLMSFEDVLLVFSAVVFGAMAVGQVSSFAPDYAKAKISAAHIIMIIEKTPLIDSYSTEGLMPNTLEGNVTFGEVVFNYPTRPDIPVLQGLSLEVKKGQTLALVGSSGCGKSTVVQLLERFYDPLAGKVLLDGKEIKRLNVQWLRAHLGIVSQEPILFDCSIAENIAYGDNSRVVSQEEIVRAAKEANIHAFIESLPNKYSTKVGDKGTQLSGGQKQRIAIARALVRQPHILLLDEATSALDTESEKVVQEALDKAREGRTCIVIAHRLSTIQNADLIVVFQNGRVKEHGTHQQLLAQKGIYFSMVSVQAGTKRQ

O=c1cc(-c2ccc(OCCOCCNCc3ccccc3)cc2)oc2ccccc12
fold change (FC) [1]: 34.1 | fold change (FC) [2]: 73 | fold change (FC) [3]: 140.5 | fold change (FC) [4]: 51.4 | fold change (FC) [5]: 59.4 | Activity [6]: 59.8% | Activity [7]: 74.6% | Activity [8]: 98.9% | Activity [9]: 97.8% | Activity [10]: 94.1% | Activity [11]: 102.4% | fold change (FC) [12]: 1.1 | fold change (FC) [13]: 1.8 | fold change (FC) [14]: 1.1 | fold change (FC) [15]: 1.3 | fold change (FC) [16]: 1 | fold change (FC) [17]: 1 | fold change (FC) [18]: 1.3 | Activity [19]: 0.57 pmol/min/µg | fold change (FC) [20]: 1.1 | fold induction at 1 h, 20 µM [21]: 1.2
